Here are results for six compounds from ChEMBL document CHEMBL1201862, “PubChem BioAssay data set” (2004).

The target in one data set is Cytochrome P450 2C9 (Homo sapiens, UniProt P11712).
Another data set has as its target Cytochrome P450 2D6 (Homo sapiens, UniProt P10635).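 Further: CYP2D6 member of a cytochrome P450 panel assay.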
The target in data set [1] is T1, Dual specificity protein phosphatase 3 (Homo sapiens, UniProt P51452). Put plainly: VHR1 phosphatase inhibitors, primary screen, biochemical, absorbance, uHTS (AID 1654).
Data set [2] deals with T1, Dual specificity protein phosphatase 3. Put plainly: VHR1 phosphatase inhibitors, biochemical (AID 1878).
Data set [3] addresses T2, Dual specificity protein phosphatase 6 (Rattus norvegicus, UniProt Q64346).
T2 sequence (Q64346 whole entry): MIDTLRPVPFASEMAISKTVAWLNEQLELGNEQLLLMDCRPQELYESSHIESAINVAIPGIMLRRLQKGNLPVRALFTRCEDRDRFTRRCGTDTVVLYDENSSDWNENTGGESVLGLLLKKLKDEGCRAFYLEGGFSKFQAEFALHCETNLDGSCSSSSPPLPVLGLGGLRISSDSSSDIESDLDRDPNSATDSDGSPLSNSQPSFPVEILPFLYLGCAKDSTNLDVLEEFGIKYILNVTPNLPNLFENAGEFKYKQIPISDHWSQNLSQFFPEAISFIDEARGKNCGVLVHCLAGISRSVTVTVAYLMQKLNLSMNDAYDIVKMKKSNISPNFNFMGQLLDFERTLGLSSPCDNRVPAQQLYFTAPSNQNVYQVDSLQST
In words: inhibition of rat DUSP6 enzyme activity – biochemical, in vitro, primary screen (AID 425).

The target in data set [4] is T1, Dual specificity protein phosphatase 3. Put plainly: SAR VHR1 absorbance Assay for In Vitro dose response studies. [Related pubchem assays (depositor defined):AID1654, AID1661, AID1878, AID1992, AID2004].
Data set [5] has the same target. Put plainly: SAR VHR1 Fluorescent Assay for In Vitro dose response studies. [Related pubchem assays (depositor defined):AID1654, AID1661, AID1878, AID1992, AID2004, AID2070, AID2085]. It counts as functional.
Data set [6] concerns the target T3, Tyrosine-protein phosphatase non-receptor type 7 (Homo sapiens, UniProt P35236).
T3 sequence (P35236 whole entry): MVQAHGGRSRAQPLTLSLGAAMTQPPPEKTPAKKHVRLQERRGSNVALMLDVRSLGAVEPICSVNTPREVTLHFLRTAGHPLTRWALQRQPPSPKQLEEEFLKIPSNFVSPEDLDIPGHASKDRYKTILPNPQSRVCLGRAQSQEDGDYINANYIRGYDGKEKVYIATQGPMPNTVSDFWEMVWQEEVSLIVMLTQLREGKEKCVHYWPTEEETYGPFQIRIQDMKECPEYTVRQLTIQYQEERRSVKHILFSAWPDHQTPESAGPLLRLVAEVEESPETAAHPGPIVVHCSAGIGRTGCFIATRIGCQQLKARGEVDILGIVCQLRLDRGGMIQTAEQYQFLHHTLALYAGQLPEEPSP
Put plainly: redox-active compounds inhibiting HePTP phosphatase – biochemical, fluorescence, mechanism study (AID 2068). It counts as functional.

For data set [7], the target named is T2, Dual specificity protein phosphatase 6. Put plainly: SAR analysis of inhibitors of MKP-3 - Set 2. [Related pubchem assays (depositor defined):AID1055, AID1661, AID425, AID553, AID566]. It counts as functional.
Data set [8] has as its target T3, Tyrosine-protein phosphatase non-receptor type 7. Put plainly: inhibition of hematopoietic tyrosine phosphatase HePTP – biochemical, set 2, SAR follow-up (AID 449736). It counts as functional.
Data set [9] shares this target. Put plainly: SAR analysis of chemical inhibitors of HePTP using a Fluorescent assay - Set 2. [Related pubchem assays (depositor defined):AID1059, AID1077, AID1661, AID2085, AID521]. It is filed as functional.
The target in data set [10] is T1, Dual specificity protein phosphatase 3. In words: SAR VHR1 Fluorescent Assay for In Vitro dose response studies Set 2. [Related pubchem assays (depositor defined):AID1654, AID1661, AID1878]. It counts as functional.
Data set [11] concerns the target T2, Dual specificity protein phosphatase 6. It counts as functional.
Data set [12] is described as follows: restored growth of temperature-sensitive Burl-1 yeast – whole organism, S. cerevisiae, Burl-1 ts mutant, luminescence, counter-screen for SUMOylation pathway inhibitor project, dose response (AID 463199). It is filed as functional.
For the next data set, the target named is SUMO E1/E2 (Homo sapiens, UniProt P63279+Q9UBE0+Q9UBT2). Put plainly: SAR analysis of SUMOylation using HTRF in an in-Vitro dose response assay. [Related pubchem assays (depositor defined):AID2006, AID2011, AID2018, AID2069, AID2658]. It is filed as functional.
For data set [13], the target named is T4, Voltage-gated N-type calcium channel alpha-1B subunit/Amyloid beta A4 precursor protein-binding family A member 1 (Homo sapiens, UniProt Q00975+Q02410). Put plainly: disruptors of Mint-PDZ/N-type channel peptide interaction – biochemical, HTRF, set 2, SAR follow-up (AID 434980). It is filed as functional.
Data set [14] addresses T4, Voltage-gated N-type calcium channel alpha-1B subunit/Amyloid beta A4 precursor protein-binding family A member 1. Put plainly: disruptors of Mint-PDZ/N-type channel peptide interaction – biochemical, HTRF, SAR follow-up (AID 2489). It is filed as functional.
The target of data set [15] is Intestinal-type alkaline phosphatase (Mus musculus, UniProt P24822). Put plainly: PubChem AID 488874. It counts as functional.
In data set [16] the target is T5, Intestinal-type alkaline phosphatase (Homo sapiens, UniProt P09923). In words: inhibition of human intestinal alkaline phosphatase – biochemical, luminescent, uHTS hits, set 2, dose response (AID 488793). It counts as functional.
Data set [17] deals with T5, Intestinal-type alkaline phosphatase. Put plainly: Dose Response confirmation of uHTS hits from a small molecule inhibitors of human intestinal alkaline phosphatase via a luminescent assay. [Related pubchem assays (depositor defined):AID2544, AID2574]. It counts as functional.
The target in a further data set is Nonstructural protein 1 (Influenza A virus, UniProt Q194T2). It counts as functional, Influenza A virus (A/California/07/2009(H1N1)).
In data set [18] the target is T6, Alkaline phosphatase, tissue-nonspecific isozyme (Homo sapiens, UniProt P05186).
T6 sequence (P05186 whole entry): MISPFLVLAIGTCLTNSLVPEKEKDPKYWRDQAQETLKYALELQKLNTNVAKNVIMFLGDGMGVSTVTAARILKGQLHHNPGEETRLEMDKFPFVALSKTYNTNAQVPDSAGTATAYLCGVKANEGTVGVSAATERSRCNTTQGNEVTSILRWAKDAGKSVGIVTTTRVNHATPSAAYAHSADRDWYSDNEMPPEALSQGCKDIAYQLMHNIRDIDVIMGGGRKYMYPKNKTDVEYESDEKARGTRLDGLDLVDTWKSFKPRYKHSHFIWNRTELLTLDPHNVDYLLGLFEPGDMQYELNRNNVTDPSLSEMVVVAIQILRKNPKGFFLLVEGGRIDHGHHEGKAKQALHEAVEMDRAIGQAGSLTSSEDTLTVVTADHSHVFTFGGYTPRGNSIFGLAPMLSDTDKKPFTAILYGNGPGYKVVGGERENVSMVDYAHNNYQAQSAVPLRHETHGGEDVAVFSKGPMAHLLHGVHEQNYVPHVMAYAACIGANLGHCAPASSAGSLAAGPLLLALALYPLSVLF
In words: inhibition of tissue-nonspecific alkaline phosphatase – biochemical, dose response (AID 488882). It is filed as functional.

The target of the next data set is T7, Protein RecA (Mycobacterium tuberculosis, UniProt P9WHJ3).
T7 sequence (P9WHJ3 whole entry): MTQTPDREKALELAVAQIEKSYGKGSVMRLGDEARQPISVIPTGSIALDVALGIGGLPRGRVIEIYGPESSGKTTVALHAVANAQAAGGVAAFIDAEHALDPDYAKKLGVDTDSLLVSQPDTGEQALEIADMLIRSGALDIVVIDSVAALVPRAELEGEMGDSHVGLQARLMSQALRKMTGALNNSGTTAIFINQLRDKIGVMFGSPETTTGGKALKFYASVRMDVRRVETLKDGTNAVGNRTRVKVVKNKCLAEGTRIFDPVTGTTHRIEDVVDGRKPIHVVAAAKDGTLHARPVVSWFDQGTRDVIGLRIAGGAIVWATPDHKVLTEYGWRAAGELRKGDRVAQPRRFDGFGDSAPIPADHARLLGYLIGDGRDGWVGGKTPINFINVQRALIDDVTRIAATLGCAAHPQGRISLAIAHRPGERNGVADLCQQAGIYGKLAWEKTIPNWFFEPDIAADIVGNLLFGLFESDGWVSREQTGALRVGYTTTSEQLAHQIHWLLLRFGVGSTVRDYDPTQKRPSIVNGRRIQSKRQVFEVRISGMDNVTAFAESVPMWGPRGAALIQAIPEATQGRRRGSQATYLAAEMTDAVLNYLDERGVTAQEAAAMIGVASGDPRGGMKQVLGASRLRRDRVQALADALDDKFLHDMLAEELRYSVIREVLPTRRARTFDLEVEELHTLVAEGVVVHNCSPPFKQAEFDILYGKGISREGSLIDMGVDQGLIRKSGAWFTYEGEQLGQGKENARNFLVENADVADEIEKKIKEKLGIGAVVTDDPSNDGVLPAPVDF
Put plainly: Fluorescence Cell-Free Homogeneous Dose Retest to Identify Inhibitors of RecA-Intein Splicing Activity. [Related pubchem assays (depositor defined):AID2097, AID2223, AID489010, AID492950]. It is filed as functional.

A further data set deals with T8, Protein skinhead-1 (Caenorhabditis elegans, UniProt P34707).
T8 sequence (P34707 whole entry): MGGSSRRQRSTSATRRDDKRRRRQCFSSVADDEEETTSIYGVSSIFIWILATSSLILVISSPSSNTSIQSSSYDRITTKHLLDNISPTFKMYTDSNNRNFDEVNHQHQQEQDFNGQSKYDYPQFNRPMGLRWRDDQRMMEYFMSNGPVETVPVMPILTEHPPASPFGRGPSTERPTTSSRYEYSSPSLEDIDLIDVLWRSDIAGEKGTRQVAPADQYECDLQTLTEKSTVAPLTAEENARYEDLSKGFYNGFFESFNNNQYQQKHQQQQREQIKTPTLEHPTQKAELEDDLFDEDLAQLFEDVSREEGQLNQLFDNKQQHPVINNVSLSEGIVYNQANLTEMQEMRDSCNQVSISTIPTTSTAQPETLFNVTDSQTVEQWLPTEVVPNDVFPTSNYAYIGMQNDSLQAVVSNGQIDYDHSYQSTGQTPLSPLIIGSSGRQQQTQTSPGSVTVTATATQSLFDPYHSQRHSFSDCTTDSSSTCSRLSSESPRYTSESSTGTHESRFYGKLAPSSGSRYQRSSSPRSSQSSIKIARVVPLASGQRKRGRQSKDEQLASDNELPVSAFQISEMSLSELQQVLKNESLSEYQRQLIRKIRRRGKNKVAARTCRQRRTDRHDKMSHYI
It is filed as functional.

Data set [19] concerns the target Sphingosine 1-phosphate receptor 5 (Homo sapiens, UniProt Q9H228). Put plainly: Late stage counterscreen assay for S1P4 antagonists: Fluorescence dose response cell-based screening assay for antagonists of the Sphingosine 1-Phosphate Receptor 5 (S1P5). [Related pubchem assays (depositor defined):AID1510, AID1524, AID1692, AID1853, AID2332, AID489009, AID489017]. It is filed as functional.

For data set [20], the target named is Sphingosine 1-phosphate receptor 3 (Homo sapiens, UniProt Q99500). In words: Late stage counterscreen assay for S1P4 antagonists: Fluorescence dose response cell-based screening assay for antagonists of the Sphingosine 1-Phosphate Receptor 3 (S1P3). [Related pubchem assays (depositor defined):AID1510, AID1524, AID1692, AID1853, AID2332, AID489009, AID489017]. It is filed as functional.

In data set [21] the target is Sphingosine 1-phosphate receptor 1 (Homo sapiens, UniProt P21453). In words: Late stage counterscreen assay for S1P4 antagonists: Fluorescence dose response cell-based screening assay for antagonists of the Sphingosine 1-Phosphate Receptor 1 (S1P1). [Related pubchem assays (depositor defined):AID1510, AID1524, AID1692, AID1853, AID2332, AID489009, AID489017]. It is filed as functional.

Data set [22] has as its target Sphingosine 1-phosphate receptor 2 (Homo sapiens, UniProt O95136). Put plainly: Late stage counterscreen assay for S1P4 antagonists: Fluorescence dose response cell-based screening assay for antagonists of the Sphingosine 1-Phosphate Receptor 2 (S1P2). [Related pubchem assays (depositor defined):AID1510, AID1524, AID1692, AID1853, AID2332, AID489009, AID489017]. It is filed as functional.

Molecules are shown by their SMILES. The source made the active and inactive calls. A value given as a limit tells only on which side of the number the result lay.

T1 sequence (P51452 whole entry): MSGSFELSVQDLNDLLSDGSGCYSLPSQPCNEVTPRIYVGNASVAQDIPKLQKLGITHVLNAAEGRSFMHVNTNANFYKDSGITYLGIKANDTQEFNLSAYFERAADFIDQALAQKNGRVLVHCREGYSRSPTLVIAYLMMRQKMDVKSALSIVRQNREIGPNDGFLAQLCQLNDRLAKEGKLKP
T4 sequence (Q00975 whole entry): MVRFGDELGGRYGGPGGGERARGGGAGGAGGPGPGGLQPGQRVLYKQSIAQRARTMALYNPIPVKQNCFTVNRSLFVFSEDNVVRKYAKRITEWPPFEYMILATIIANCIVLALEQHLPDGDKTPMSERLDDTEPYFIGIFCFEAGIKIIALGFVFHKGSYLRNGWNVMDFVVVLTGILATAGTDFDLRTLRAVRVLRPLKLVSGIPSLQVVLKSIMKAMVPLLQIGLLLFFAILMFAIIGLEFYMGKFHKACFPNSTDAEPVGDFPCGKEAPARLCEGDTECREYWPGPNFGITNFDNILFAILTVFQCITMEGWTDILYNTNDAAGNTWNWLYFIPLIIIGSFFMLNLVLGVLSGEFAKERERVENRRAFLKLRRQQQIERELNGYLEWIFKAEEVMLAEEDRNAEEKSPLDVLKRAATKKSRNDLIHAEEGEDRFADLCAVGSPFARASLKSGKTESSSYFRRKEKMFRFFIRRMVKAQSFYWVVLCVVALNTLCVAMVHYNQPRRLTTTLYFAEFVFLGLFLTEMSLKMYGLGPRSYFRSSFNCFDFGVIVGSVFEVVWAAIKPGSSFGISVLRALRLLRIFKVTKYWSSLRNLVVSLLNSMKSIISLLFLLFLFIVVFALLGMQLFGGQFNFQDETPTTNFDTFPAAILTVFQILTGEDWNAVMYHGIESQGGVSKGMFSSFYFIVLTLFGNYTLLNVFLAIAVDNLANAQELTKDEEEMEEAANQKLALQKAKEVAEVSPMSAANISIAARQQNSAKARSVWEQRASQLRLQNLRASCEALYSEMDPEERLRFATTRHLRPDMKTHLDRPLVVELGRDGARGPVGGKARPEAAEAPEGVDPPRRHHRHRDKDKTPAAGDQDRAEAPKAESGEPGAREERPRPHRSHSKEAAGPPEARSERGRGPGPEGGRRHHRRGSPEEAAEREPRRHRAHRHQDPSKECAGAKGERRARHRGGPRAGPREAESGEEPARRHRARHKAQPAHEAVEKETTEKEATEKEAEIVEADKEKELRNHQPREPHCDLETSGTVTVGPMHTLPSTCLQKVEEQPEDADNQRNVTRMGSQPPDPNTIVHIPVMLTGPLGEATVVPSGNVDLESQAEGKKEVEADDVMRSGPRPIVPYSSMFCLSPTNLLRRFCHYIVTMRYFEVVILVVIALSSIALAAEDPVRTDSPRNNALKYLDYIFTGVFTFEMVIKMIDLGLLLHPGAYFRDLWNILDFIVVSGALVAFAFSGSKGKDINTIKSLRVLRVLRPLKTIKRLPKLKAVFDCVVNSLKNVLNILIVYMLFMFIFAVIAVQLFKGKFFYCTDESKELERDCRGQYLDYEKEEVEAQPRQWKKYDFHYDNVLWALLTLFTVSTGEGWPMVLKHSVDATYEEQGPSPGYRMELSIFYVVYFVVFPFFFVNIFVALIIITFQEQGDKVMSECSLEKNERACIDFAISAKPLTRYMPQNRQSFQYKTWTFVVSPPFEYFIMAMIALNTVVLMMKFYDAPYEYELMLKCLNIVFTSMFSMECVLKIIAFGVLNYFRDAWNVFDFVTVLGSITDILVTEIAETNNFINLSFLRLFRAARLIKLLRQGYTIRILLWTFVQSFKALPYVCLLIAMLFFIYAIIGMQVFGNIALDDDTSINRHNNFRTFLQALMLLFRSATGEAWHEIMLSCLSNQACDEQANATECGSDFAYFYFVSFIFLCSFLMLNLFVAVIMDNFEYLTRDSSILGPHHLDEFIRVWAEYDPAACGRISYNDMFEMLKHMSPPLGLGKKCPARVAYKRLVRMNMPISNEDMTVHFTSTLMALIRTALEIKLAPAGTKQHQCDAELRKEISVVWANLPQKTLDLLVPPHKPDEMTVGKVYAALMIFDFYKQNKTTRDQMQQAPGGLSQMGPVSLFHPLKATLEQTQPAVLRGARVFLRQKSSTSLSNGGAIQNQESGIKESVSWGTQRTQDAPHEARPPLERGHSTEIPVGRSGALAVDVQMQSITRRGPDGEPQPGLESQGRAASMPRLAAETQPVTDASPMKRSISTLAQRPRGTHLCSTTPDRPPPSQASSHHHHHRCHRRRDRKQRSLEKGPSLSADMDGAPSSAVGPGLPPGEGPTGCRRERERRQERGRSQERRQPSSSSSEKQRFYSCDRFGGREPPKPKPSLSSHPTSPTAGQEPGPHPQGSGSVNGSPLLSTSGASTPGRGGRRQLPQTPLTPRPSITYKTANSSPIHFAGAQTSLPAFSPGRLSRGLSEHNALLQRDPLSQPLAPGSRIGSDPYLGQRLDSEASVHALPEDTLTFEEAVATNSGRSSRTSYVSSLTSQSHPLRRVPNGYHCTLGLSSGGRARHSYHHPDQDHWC
T4 sequence (Q02410 whole entry): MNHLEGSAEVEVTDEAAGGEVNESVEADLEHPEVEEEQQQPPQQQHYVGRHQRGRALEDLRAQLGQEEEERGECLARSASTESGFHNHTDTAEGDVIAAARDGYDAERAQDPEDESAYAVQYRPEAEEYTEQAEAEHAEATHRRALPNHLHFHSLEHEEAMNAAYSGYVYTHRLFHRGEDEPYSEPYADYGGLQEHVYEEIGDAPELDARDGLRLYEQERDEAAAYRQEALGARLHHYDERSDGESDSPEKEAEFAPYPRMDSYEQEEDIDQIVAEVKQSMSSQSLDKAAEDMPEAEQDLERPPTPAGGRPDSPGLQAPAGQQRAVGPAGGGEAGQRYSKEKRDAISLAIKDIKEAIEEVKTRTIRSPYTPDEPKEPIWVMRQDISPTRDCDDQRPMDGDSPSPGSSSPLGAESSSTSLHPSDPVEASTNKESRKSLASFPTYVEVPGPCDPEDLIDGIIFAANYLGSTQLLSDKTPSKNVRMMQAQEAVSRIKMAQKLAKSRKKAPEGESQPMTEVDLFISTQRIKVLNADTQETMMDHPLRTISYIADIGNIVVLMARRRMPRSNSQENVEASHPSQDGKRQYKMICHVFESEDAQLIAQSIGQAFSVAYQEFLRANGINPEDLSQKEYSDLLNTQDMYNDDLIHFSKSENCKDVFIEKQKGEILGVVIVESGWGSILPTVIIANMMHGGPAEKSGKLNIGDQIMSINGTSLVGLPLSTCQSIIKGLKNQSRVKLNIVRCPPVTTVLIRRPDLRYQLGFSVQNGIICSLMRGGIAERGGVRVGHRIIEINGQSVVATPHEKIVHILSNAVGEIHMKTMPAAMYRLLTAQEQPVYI
T5 sequence (P09923 whole entry): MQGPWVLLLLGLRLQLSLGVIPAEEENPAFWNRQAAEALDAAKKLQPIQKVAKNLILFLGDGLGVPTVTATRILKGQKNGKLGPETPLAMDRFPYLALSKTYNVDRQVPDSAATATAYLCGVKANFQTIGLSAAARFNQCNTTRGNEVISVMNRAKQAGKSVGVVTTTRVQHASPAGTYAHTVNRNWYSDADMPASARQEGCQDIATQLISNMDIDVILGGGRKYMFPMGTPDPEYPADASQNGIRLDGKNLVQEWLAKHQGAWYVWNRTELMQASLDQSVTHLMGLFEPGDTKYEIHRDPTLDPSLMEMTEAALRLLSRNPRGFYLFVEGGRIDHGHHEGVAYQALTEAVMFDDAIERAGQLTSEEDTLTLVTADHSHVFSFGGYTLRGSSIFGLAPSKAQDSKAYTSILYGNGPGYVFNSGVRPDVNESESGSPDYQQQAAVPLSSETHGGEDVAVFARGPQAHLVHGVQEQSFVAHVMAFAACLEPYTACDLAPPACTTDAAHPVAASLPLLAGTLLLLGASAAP
Sphingosine 1-phosphate receptor 1, sequence (P21453 whole entry): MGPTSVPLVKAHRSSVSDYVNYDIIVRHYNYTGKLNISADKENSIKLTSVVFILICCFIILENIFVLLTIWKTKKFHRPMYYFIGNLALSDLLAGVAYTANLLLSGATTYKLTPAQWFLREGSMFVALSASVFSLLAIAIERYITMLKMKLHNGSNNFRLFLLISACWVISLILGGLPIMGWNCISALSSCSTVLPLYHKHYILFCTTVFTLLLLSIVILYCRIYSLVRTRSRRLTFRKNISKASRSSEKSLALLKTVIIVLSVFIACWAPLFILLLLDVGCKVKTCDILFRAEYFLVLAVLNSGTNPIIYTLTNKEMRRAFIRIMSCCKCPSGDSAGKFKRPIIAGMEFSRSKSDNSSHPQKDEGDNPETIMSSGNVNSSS
Cytochrome P450 2D6, sequence (P10635 whole entry): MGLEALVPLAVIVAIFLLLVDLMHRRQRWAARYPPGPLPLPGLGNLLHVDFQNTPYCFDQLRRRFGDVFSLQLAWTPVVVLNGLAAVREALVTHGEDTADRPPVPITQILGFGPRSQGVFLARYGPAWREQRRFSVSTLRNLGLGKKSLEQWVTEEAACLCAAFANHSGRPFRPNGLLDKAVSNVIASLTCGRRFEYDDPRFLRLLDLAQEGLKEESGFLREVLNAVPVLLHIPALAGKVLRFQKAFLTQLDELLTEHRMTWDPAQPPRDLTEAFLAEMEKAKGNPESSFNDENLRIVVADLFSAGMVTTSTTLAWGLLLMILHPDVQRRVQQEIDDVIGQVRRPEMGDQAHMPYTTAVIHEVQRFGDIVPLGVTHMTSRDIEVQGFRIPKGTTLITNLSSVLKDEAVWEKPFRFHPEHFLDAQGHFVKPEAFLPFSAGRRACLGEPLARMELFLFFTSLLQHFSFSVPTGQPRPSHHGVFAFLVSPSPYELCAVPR
Nonstructural protein 1, sequence (Q194T2 whole entry): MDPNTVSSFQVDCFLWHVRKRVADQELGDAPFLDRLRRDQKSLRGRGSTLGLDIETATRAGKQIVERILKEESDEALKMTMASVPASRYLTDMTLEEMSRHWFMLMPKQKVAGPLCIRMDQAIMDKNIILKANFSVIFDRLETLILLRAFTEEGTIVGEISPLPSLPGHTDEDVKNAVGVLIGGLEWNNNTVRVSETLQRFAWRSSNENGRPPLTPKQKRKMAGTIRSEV

Turning to `Cc1nn(-c2ccccc2)c(Cl)c1/C=N/NC(=O)c1ccco1`, the AC50 at Cytochrome P450 2C9 was 22.4 µM (inconclusive); on Cytochrome P450 2D6, “inconclusive”.

As to `NS(=O)(=O)c1ccc(NC(=S)NC2CCCCC2)cc1`, the IC50 in data set [1] is 2.15 µM (active); in data set [2] it was 3.49 µM (active); in data set [3], > 158 µM (not active); in data set [4] it was 0.704 µM (active); in [5] it was > 99 µM (inactive); in data set [6], 0.025 µM (active). For the same compound, the IC50 in [7] was > 100 µM (inactive); in [8] it was > 100 µM (inactive); in data set [9], 1.27 µM (active); in data set [10] it was 0.143 µM (active); in [11] it was > 99 µM (inactive).

In the case of `O=C1CC(c2cccc(Br)c2)C2=C(COC2=O)N1` (stereo not drawn), the AC50 in [12] is 85 µM (active).

As to `Cc1ccc(CNC(=O)COC(=O)c2cc(-c3ccco3)nc3ccccc23)cc1`, the figures for the IC50 (at SUMO E1/E2; in data set [13]; in data set [14]) were 6.5 µM (active), 12.1 µM (active) and 18.1 µM (active), respectively.

Turning to `CC1=NN(Cc2ccccc2)C(=O)/C1=C\c1ccc(N(C)C)cc1`, the IC50 is 35.1 µM (active) in data set [15]; 39.4 µM (active) in data set [16]; 16.8 µM (inactive) in [17]; 32.3 µM (active) at Nonstructural protein 1; 46.7 µM (active) in data set [18]; > 100 µM (inactive) at Protein skinhead-1. In addition, on Protein RecA, the EC50 is > 380 µM (inactive).

With `Cc1cscc1-c1ccc(C(=O)Nc2c(C)cccc2C)o1`, the IC50 in data set [19], in [20], in data set [21] and in data set [22] was > 25 µM (inactive) throughout.
